According to ChEMBL document CHEMBL1152385, “Cyanoguanidine-based lactam derivatives as a novel class of orally bioavailable factor Xa inhibitors” (Bioorg Med Chem Lett, 2009):
Activity calls are given as the source filed them. The rule behind the calls is not given here.

How the values were obtained:
[1] = molecular target: 5-hydroxytryptamine receptor 1A (Homo sapiens) (UniProt P08908); test: Inhibition of human 5HT1A receptor at 10 uM
[2] = molecular target: Glucocorticoid receptor (Homo sapiens) (UniProt P04150); test: Inhibition of human glucocorticoid receptor at 10 uM
[3] = molecular target: Sodium-dependent noradrenaline transporter (Homo sapiens) (UniProt P23975); test: Inhibition of human norepinephrine transporter at 10 uM
[4] = Inhibition of tryptase
[5] = molecular target: Adrenergic receptor alpha-2 (Rattus norvegicus) (UniProt P22086+P19328+P22909); test: Inhibition of rat adrenergic alpha2 receptor at 10 uM
Rattus norvegicus [6] = test: Antithrombotic activity in pentobarbital-anesthetized Sprague-Dawley rat assessed reduction in occlusion of arteries administered as initial 20 mg/kg, iv bolus dose followed by sustaining 20 mg/kg/h, iv dosing; assay type: functional, organism-based
[7] = molecular target: 5-hydroxytryptamine receptor 2B (Homo sapiens) (UniProt P41595); test: Inhibition of human 5HT2B receptor at 10 uM
[8] = molecular target: D(2) dopamine receptor (Homo sapiens) (UniProt P14416); test: Inhibition of human dopamine D2S receptor at 10 uM
[9] = Inhibition of trypsin
[10] = molecular target: Sodium-dependent dopamine transporter (Rattus norvegicus) (UniProt P23977); test: Inhibition of rat dopamine transporter at 10 uM
[11] = molecular target: Beta-1 adrenergic receptor (Homo sapiens) (UniProt P08588); test: Inhibition of human adrenergic beta-1 receptor at 10 uM
Rattus norvegicus [12] = species: Rattus norvegicus; test: animal or person; conditions: Sprague-Dawley, iv
Rattus norvegicus [13] = species: Rattus norvegicus; test: animal or person; conditions: Sprague-Dawley, Vena cava, iv
Rattus norvegicus [14] = species: Rattus norvegicus; test: Inhibition of rat GABA transporter at 10 uM
Rattus norvegicus [15] = species: Rattus norvegicus; test: Inhibition of rat AMPA receptor at 10 uM
[16] = molecular target: Progesterone receptor (Homo sapiens) (UniProt P06401); test: Inhibition of human progesterone receptor at 10 uM
[17] = molecular target: D(1A) dopamine receptor (Homo sapiens) (UniProt P21728); test: Inhibition of human dopamine D1 receptor at 10 uM
Rattus norvegicus [18] = species: Rattus norvegicus; test: Inhibition of rat 5-HT receptor at 10 uM
[19] = molecular target: Adrenergic receptor alpha-1 (Rattus norvegicus) (UniProt P15823+P23944+P43140); test: Inhibition of rat adrenergic alpha1 receptor at 10 uM
Rattus norvegicus [20] = test: Ex vivo anticoagulant activity in pentobarbital-anesthetized Sprague-Dawley rat assessed as prolongation of prothrombin time administered as initial bolus iv dosing followed by sustaining iv infusion; assay type: functional, organism-based
[21] = molecular target: Histamine H2 receptor (Cavia porcellus) (UniProt P47747); test: Inhibition of guinea pig histamine H2 receptor at 10 uM
[22] = molecular target: Beta-2 adrenergic receptor (Homo sapiens) (UniProt P07550); test: Inhibition of human adrenergic beta2 receptor at 10 uM
[23] = Inhibition of sst receptor at 10 uM
[24] = Inhibition of sodium channel
Rattus norvegicus [25] = species: Rattus norvegicus; test: Inhibition of rat PCP receptor at 10 uM
Rattus norvegicus [26] = species: Rattus norvegicus; test: Inhibition of rat chloride channel at 10 uM
Rattus norvegicus [27] = species: Rattus norvegicus; test: Inhibition of rat central-type benzodiazepine receptor at 10 uM
[28] = molecular target: Estrogen receptor (Homo sapiens) (UniProt P03372); test: Inhibition of human ERalpha receptor at 10 uM
[29] = molecular target: Muscarinic acetylcholine receptor (Rattus norvegicus) (UniProt P08482+P08483+P08485+P08911+P10980); test: Inhibition of rat muscarinic receptor at 10 uM
Rattus norvegicus [30] = species: Rattus norvegicus; test: Inhibition of rat choline transporter at 10 uM
Mus musculus = species: Mus musculus; test: Inhibition of mouse rolipram binding site at 10 uM
Rattus norvegicus [31] = species: Rattus norvegicus; test: Inhibition of rat kainate receptor at 10 uM
cells = conditions: Homo sapiens, TC5
[32] = molecular target: Adenosine receptor A1 (Homo sapiens) (UniProt P30542); test: Inhibition of human adenosine A1 receptor at 10 uM
Rattus norvegicus [33] = species: Rattus norvegicus; test: Inhibition of rat opioid receptor at 10 uM
[34] = molecular target: Glutamate NMDA receptor (Rattus norvegicus) (UniProt P35439+Q00959+Q00960+Q00961+Q62645+Q8VHN2+Q9R1M7); test: Inhibition of rat NMDA receptor at 10 uM; assay type: protein-complex assay
[35] = molecular target: Cholecystokinin receptor type A (Homo sapiens) (UniProt P32238); test: Inhibition of human CCK1 receptor at 10 uM
Rattus norvegicus [36] = species: Rattus norvegicus; test: Inhibition of rat sodium channel site 2 at 10 uM
Rattus norvegicus [37] = test: Antithrombotic activity in pentobarbital-anesthetized Sprague-Dawley rat assessed as improved blood flow in arterial thrombosis administered as initial bolus iv dosing plus sustaining iv infusion; assay type: functional, organism-based
[38] = molecular target: Histamine H1 receptor (Cavia porcellus) (UniProt P31389); test: Inhibition of guinea pig histamine H1 receptor at 10 uM

Sequence of Cholecystokinin receptor type A (Homo sapiens) (P32238 whole entry): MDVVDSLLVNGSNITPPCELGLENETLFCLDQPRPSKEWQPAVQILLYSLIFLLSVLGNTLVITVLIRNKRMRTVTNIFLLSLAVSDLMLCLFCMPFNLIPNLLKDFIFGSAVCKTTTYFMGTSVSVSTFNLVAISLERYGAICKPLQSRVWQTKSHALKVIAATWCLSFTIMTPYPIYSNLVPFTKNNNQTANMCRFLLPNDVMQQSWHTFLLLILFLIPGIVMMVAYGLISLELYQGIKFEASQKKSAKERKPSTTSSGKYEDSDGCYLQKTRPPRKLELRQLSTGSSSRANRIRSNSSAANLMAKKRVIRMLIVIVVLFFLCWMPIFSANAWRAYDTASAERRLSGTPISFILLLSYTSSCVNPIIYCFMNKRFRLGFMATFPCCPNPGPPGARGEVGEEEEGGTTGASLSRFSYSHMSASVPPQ
Sequence of Glucocorticoid receptor (Homo sapiens) (P04150 whole entry): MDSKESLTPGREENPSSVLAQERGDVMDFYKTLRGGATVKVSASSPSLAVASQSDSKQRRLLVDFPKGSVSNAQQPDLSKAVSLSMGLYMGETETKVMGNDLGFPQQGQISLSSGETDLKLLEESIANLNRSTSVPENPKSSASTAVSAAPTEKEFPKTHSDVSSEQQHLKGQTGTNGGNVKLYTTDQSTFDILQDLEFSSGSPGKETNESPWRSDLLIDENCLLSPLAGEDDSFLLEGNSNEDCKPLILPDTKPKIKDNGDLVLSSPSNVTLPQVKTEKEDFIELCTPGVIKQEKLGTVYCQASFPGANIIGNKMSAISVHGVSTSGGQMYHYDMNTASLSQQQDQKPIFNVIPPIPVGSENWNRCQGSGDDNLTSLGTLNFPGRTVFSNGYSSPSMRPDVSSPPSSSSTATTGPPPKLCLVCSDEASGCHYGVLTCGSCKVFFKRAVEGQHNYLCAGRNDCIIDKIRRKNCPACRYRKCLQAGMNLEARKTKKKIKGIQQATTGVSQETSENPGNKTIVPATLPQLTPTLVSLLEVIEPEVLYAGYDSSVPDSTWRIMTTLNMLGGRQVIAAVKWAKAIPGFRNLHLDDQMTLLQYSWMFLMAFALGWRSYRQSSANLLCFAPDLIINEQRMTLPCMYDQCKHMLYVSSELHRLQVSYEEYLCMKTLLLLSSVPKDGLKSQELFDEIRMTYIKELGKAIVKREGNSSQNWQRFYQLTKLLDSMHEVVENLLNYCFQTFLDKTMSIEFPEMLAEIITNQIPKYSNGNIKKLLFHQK
Sequence of Sodium-dependent noradrenaline transporter (Homo sapiens) (P23975 whole entry): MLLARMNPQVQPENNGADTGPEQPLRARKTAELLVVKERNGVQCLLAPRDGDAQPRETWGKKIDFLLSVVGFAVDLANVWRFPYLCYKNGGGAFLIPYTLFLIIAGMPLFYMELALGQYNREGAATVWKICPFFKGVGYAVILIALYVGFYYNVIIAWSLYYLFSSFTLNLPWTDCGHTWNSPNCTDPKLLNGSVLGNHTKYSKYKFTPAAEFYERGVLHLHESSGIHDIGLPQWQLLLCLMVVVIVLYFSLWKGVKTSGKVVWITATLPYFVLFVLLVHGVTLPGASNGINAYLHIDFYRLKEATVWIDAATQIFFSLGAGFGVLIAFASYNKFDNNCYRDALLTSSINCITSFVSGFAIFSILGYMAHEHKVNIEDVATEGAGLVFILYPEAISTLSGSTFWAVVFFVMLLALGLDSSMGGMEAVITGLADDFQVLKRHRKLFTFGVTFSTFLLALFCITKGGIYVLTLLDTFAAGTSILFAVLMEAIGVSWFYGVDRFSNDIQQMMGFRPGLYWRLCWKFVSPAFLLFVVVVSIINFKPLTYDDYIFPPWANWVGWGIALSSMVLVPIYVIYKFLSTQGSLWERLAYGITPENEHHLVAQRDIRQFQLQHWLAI
Sequence of 5-hydroxytryptamine receptor 1A (Homo sapiens) (P08908 whole entry): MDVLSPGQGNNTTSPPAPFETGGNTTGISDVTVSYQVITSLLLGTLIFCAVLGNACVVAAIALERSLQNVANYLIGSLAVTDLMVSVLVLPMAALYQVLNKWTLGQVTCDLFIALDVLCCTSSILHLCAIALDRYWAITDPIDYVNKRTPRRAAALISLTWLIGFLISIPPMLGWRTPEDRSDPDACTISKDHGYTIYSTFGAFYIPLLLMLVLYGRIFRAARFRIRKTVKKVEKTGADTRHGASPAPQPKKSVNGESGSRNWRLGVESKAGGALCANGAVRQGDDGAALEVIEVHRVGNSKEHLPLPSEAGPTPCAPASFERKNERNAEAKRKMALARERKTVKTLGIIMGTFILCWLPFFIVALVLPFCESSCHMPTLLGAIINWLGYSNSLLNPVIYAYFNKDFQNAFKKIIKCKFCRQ
Sequence of Histamine H2 receptor (Cavia porcellus) (P47747 whole entry): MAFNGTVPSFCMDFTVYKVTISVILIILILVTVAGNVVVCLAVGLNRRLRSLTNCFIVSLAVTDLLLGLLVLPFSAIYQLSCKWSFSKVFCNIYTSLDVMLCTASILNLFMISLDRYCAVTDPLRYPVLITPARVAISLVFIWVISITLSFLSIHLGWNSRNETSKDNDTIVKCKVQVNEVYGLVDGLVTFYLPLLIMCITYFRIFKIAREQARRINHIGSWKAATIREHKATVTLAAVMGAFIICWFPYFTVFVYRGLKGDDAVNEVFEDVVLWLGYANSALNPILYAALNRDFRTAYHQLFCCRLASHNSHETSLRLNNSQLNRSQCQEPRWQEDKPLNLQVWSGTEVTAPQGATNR
Sequence of Beta-2 adrenergic receptor (Homo sapiens) (P07550 whole entry, looked up): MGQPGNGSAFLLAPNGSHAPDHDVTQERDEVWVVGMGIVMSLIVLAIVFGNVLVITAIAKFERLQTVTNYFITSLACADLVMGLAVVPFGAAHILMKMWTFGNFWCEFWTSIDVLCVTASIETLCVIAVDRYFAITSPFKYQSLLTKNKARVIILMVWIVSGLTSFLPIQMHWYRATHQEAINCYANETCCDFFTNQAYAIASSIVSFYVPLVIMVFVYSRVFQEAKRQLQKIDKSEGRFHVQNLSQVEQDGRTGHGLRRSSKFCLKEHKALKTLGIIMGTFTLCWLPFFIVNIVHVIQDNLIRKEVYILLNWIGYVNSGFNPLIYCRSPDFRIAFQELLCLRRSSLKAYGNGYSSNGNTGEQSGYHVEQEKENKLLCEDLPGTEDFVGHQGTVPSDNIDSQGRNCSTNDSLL
Sequence of D(1A) dopamine receptor (Homo sapiens) (P21728 whole entry): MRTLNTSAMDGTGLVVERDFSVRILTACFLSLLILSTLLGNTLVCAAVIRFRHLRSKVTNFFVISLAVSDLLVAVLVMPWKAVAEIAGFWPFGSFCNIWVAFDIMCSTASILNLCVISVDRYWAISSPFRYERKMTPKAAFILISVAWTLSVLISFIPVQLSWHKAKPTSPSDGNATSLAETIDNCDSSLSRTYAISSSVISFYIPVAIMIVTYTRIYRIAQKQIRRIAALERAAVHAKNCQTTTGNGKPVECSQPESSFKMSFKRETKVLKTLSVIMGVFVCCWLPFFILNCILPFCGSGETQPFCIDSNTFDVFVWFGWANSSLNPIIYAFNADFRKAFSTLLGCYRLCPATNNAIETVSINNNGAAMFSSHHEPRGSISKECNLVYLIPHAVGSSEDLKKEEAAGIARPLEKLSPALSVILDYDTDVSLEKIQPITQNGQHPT
Sequence of Estrogen receptor (Homo sapiens) (P03372 whole entry): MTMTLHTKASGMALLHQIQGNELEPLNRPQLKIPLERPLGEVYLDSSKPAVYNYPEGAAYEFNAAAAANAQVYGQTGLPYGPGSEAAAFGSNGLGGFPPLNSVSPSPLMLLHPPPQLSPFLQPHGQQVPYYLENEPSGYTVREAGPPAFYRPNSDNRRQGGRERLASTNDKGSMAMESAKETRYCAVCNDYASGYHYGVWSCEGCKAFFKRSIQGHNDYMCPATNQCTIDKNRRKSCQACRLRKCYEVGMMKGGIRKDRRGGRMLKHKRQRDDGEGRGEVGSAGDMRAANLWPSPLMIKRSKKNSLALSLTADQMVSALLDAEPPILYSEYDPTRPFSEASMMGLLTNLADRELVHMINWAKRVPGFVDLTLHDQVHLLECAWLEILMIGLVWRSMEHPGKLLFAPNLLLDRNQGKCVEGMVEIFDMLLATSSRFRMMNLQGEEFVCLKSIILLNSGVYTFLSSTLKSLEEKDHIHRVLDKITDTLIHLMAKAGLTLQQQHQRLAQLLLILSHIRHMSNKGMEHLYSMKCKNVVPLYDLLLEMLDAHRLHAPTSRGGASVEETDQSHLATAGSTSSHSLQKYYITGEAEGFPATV
Sequence of Adenosine receptor A1 (Homo sapiens) (P30542 whole entry): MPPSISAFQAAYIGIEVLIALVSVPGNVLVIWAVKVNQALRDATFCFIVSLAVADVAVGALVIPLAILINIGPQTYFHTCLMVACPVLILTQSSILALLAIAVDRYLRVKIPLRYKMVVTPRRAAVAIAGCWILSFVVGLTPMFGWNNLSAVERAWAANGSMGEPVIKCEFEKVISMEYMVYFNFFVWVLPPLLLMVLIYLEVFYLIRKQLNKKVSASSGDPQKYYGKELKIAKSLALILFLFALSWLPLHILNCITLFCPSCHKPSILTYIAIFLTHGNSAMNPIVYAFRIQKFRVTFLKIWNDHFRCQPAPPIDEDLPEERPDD
Sequence of D(2) dopamine receptor (Homo sapiens) (P14416 whole entry): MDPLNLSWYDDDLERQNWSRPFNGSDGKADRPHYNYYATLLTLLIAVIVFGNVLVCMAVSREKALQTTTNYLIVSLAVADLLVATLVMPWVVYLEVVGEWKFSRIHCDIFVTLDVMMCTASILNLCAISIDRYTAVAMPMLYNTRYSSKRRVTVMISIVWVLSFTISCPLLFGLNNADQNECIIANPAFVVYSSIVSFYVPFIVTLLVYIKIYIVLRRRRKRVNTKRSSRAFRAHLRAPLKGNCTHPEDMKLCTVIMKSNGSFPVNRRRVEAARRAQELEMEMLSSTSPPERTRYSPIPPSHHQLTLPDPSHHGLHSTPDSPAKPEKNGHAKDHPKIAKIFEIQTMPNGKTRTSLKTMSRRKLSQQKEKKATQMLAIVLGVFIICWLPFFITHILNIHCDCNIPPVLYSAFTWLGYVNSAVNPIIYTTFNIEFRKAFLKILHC

Structure (SMILES): Cc1cc2cc(/N=C(/NC#N)N[C@H]3CCCCN(CC(=O)N4CCCC4)C3=O)ccc2o1
- inhibition [1]: inactive
- inhibition [2]: inactive
- inhibition [3]: inactive
- Ki [4]: > 16 µM
- inhibition [5]: inactive
- Activity (Rattus norvegicus [6]): Active
- inhibition [7]: inactive
- inhibition [8]: inactive
- Ki [9]: > 10 µM
- inhibition [10]: inactive
- inhibition [11]: inactive
- ED50 (Rattus norvegicus [12]): 25 mg/kg
- ED50 (Rattus norvegicus [13]): 6 mg/kg
- inhibition (Rattus norvegicus [14]): inactive
- inhibition (Rattus norvegicus [15]): inactive
- inhibition [16]: inactive
- inhibition [17]: inactive
- inhibition (Rattus norvegicus [18]): inactive
- inhibition [19]: inactive
- Activity (Rattus norvegicus [20]): Dose-dependent effect
- inhibition [21]: inactive
- EC (Plasma): 30 µM
- inhibition [22]: inactive
- inhibition [23]: inactive
- inhibition [24]: inactive
- inhibition (Rattus norvegicus [25]): inactive
- inhibition (Rattus norvegicus [26]): inactive
- inhibition (Rattus norvegicus [27]): inactive
- inhibition [28]: inactive
- inhibition [29]: inactive
- inhibition (Rattus norvegicus [30]): inactive
- inhibition (Mus musculus): inactive
- inhibition (Rattus norvegicus [31]): inactive
- IC50 (cells): > 200 µM
- inhibition [32]: inactive
- inhibition (Rattus norvegicus [33]): inactive
- inhibition [34]: inactive
- inhibition [35]: inactive
- inhibition (Rattus norvegicus [36]): inactive
- Activity (Rattus norvegicus [37]): Active
- inhibition [38]: inactive
